Values quoted from earlier work as cited in patent US20220287302A1, “COMPOSITIONS FOR PATHOGEN IN[…] PATHOGEN REDUCTION MANAGEMENT” (priority 2020, published 2022).

**Q.** For `O=c1c(O)c(O)c1=O` [Squaric acid, 3,4-dihydroxy-3-cyclobutene-1,2 dione], which “pKa for the first proton” value (first proton) is on record?
**A.** 1.5

**Q.** What about the “pKa for the second proton” value (second proton) of the same compound?
**A.** 3.4
